{
  "source": "patent US20090053307A1",
  "about": "“IMMEDIATE-RELEASE T[…] FOR IMPROVED ORAL ABSORPTION OF 7-[(E)]-T-BUTY-LOXYMINOMETHYL] CAMPTOTHECIN” (SIGMA-TAU INDUSTRIE FAR[…] S.P.A., priority 2005, published 2009)",
  "origin": "cited, not measured here",
  "tested_on": "large cell pulmonary carcinoma (not SCLC, H-460)",
  "conditions": "H-460 tumour line; from W097/31003",
  "data": [
    {"smiles": "CCC1(O)C(=O)OCc2c1cc1n(c2=O)Cc2c-1nc1ccccc1c2C#N", "note": "(stereo not shown) [CPT 83]", "values": [
      {"measurement": "activity compared with reference compound topotecan", "value": "more active than topotecan"}
    ]}
  ]
}
